Values of other authors, collected in patent US20070065359A1, “Nanocells for diagnosis and treatment of diseases and disorders” (priority 2005, published 2007).
pKd: −log10 of the molar value.

Target: TF antigen
Conditions: peptide displayed as a monomer; read-out: affinity for the TF antigen

Q: With “IVWHRWYAWSPASRI [TF antigen-binding peptide, I—V—W—H—R—W—Y-A-W—S—P-A-S—R—I]” as the sequence, how does the pKd read?
A: 6.22
